In patent US8143223B2, “Cytoprotection by means of phosphotyrosine” (Eberhard-Karls-Universitaet Tuebingen Universitaetsklinikum, priority 2001, dated 2012):

Legend:
[1] = test system: untransformed fibroblasts (HSF1); assay: Clonogenic assay comparing the radioprotective effect of phosphorylated amino acids, 4 Gy; type: cell-based, human; settings: 10 μM for 16 hours, then 4 Gy ionizing irradiation, FIG. 3
[2] = test system: normal skin fibroblasts (HSF6); assay: Clonogenic assay after P-Tyr pretreatment alone, no cell-damaging treatment; type: cell-based, human; settings: P-Tyr alone for 16 hours at up to 2000 μM, FIG. 2A
Protocol: Human fibroblasts (cell strains HSF1 and HSF6, which are derived from human skin, passages 9 to 15; CCD32, which is derived from embryonic lung tissue, passages 9 to 11) are particularly well suited for investigating the cytoprotective properties of the phosphotyrosine.
The cells are cultured in Dulbecco's modified Eagle's medium (DMEM) supplemented with 10% fetal calf serum (FCS) (GIBCO/BRL, Eggenstein, Germany, article No. 40G7285K) (=normal medium), under standard conditions. […]
(§1) In this connection, a colony is a mass of cells which develops, during the 14 days of culture, from a single cell as a result of consecutive cell divisions. […] If many cells die during the treatment with the cell-damaging factors, only a few colonies are then formed after 14 days; if many cells survive, many colonies can then be counted after the 14 days of culture. […]
(§2) After the 14 days of culture, the cells are fixed, stained and counted as described (Dittmann et al., 1995, loc. cit.). When determining clonogenic survival, the colonies containing more than 50 cells are counted per plate. […]
(§3) The result of such a clonogenic assay is expressed as “relative cytoprotection” or in “% number of the clones”, with the number of the colonies formed in the different assays being related to each other. […]

[3] = test system: transformed fibroblast cell line HH4dd; assay: as above; type: cell-based, human; settings: FIG. 2A
From the text: Transformed human fibroblasts, e.g., the cell line HH4dd (is derived from human skin, passages 65 to 70), are also suitable for the investigation. This cell line is derived from the normal cell strain HH4 and is likewise characterized by a p53 mutation (Dittmann et al., “The radioprotective effect of BBI is associated with the activation of DNA-repair relevant genes”, Int. J. Radiat. Biol. 74, pages 225-230, 1998). HH4dd grows in soft agar, is characterized by its aneuploidy and induces tumors in nude mice. […]
as §1, §2, §3

[4] = test system: normal skin fibroblasts (HSF6); assay: Clonogenic assay after P-Tyr pretreatment and ionizing irradiation at 4 Gy, different P-Tyr doses; type: cell-based, human; settings: FIG. 2B
Protocol: (§4) For the radioactive irradiation, the cells are irradiated with 4 MV photons using a “Linac” (Mevatron^60/Siemens, Erlangen, Germany) using a dose rate of 2 Gy/min at room temperature, as described (Dittmann et al. “Bowman-Birk Proteinase inhibitor modulates radiosensitivity and radiation-induced differentiation of human fibroblasts in culture”, Radiother. Oncol. 34, pages 137-143, 1995).
(§5) The cells, which are cultured as described in Example 1 and which are either incubated with the cell-damaging factors as described in Example 2 or remain untreated as controls, are freed from medium, washed and detached from the substrate using 0.05% trypsin and 0.1% EDTA. For the purpose of analyzing colony formation, the detached cells are plated at a constant cell density of 1500 cells per 78 cm^2 dish. […]
as §1, §2

[5] = test system: transformed HH4dd fibroblasts; assay: as above; type: cell-based, human; settings: FIG. 2B
Protocol: as §4, §5, §1, §2

[6] = test system: normal lung fibroblasts (CCD32); assay: Clonogenic assay after P-Tyr pretreatment and ionizing irradiation at 0 to 6 Gy; type: cell-based, human; settings: 10 μM P-Tyr for 16 hours, up to 6 Gy, FIG. 4
Protocol: as §4, §5, §1, §2

[7] = test system: normal skin fibroblasts (HSF6); assay: as above; type: cell-based, human; settings: 10 μM P-Tyr for 16 hours, up to 6 Gy, FIG. 4
Protocol: as §4, §5, §1, §2

[8] = test system: HTB-35 squamous carcinoma cell line; assay: as above; type: cell-based, human; settings: 10 μM P-Tyr for 16 hours, FIG. 4
From the text: (§6) In addition, it is possible to use the human squamous carcinoma cell lines HTB-35 (ATCC, which is derived from a cervical carcinoma, passage unknown, used in passage 10 after receipt) (Srivastava et al., “The status of the p53 gene in human papilloma virus positive or negative cervical carcinoma cell lines”, Carcinogenesis 13, pages 1273-1275, 1992) and HTB-43 (ATCC, is derived from a hypopharyngeal tumor, passage 124). Both carcinoma cell lines are characterized by a point mutation in the p53 gene (Kim et al., “State of p53, Rb and DCC tumor suppressor genes in human oral cancer cell lines”, Anticancer Research, pages 1405-1413, 1993). […]
as §1, §2

[9] = test system: HTB-43 squamous carcinoma cell line; assay: as above; type: cell-based, human; settings: 10 μM P-Tyr for 16 hours, FIG. 4
From the text: as §6, §1, §2

[10] = test system: normal, untransformed fibroblasts (HSF1); assay: Clonogenic assay after P-Tyr pretreatment and UVB irradiation; type: cell-based, human; settings: 10 μM P-Tyr for 16 hours, then 200 J of UVB, assayed 7 hours later, FIG. 5A
Protocol: (§7) The cells are irradiated with UV light (312 nm) at a dose rate of 450 J/m^2 per minute using a UVB lamp (Bioblock Scientific, Illkirch Cedex, France).
(§8) The cells, which are cultured as described in Example 1 and which are either incubated with the cell-damaging factors as described in Example 2 or remain untreated as controls, are freed from medium, washed and detached from the substrate using 0.05% trypsin and 0.1% EDTA. For the purpose of analyzing colony formation, the detached cells are plated at a constant cell density of 1500 cells per 78 cm^2 dish. The plated cells were then incubated for 14 days in normal medium additionally containing 20% FCS. This period of time enabled colony formation to take place.
as §1, with “divisions. This colony is also termed a clone.” for “divisions.”
as §2

[11] = test system: transformed fibroblasts (HH4dd); assay: as above; type: cell-based, human; settings: 10 μM P-Tyr for 16 hours, then 200 J of UVB, FIG. 5B
Protocol: as §7, §8
as §1, with “divisions. This colony is also termed a clone.” for “divisions.”
as §2

[12] = test system: normal, untransformed fibroblasts (HSF1); assay: Clonogenic assay after P-Tyr pretreatment and cisplatin treatment; type: cell-based, human; settings: 10 μM P-Tyr for 16 hours, then 1 μg of cisplatin/ml for one hour, versus cells not pretreated, FIG. 6A
Protocol: (§9) The incubation with cisplatin take place at a concentration of 1 μg of cisplatin/ml (cis-diammine platinum(II-dichloride); Sigma, Munich, Germany).
as §8
as §1, with “divisions. This colony is also termed a clone.” for “divisions.”
as §2

[13] = test system: transformed fibroblasts (HH4dd); assay: as above; type: cell-based, human; settings: 10 μM P-Tyr for 16 hours, then 1 μg of cisplatin/ml for one hour, FIG. 6B
Protocol: as §9, §8
as §1, with “divisions. This colony is also termed a clone.” for “divisions.”
as §2

[14] = Inventors' investigations of the concentration range of the cytoprotective effect; type: cell-based; settings: investigations carried out by the inventors
Protocol: In the culture medium according to the invention it is preferred to use phosphotyrosine in a concentration range of from 1 to 100 μM. Thus, investigations carried out by the inventors have shown that the cytoprotective effect of the phosphotyrosine is particularly high in this range.

[15] = test system: human breast and kidney carcinoma cells; settings: Mishra and Hamburger 1993; P-Tyr dose-dependent; run at 1.67 mM, some at 16.7 mM; cited from earlier work
[16] = test system: liver carcinoma cell line and arc-transformed NIH 3T3 cells; settings: Mishra and Hamburger, Cancer Letters 1996; cited from earlier work

| SMILES | radioprotection (clonogenic assay) [1] | effect on clonogenic survival [2] | effect on clonogenic survival [3] | P-Tyr concentration at which maximum survival was achieved ([4]; ionizing irradiation at 4 Gy) | clonogenic survival after ionizing irradiation ([4]; phosphotyrosine plus ionizing irradiation at 4 Gy) | clonogenic survival after ionizing irradiation ([5]; transformed HH4dd fibroblasts, same treatment) | toxicity of the radiation ([5]; transformed fibroblasts, 2000 pM P-Tyr) | clonogenic survival after ionizing irradiation [6] | clonogenic survival after ionizing irradiation [7] | clonogenic survival after ionizing irradiation [8] | clonogenic survival after ionizing irradiation [9] | increase in clonogenic survival after UVB irradiation [10] | effect on clonogenic survival after UVB irradiation [11] | increase in clonogenic survival after cisplatin incubation [12] | clonogenic survival after cisplatin treatment [13] | concentration range in which the cytoprotective effect is particularly high [14] | growth of human breast and kidney carcinoma cells [15] | cell growth of liver carcinoma cell line and arc-transformed NIH 3T3 cells [16] |
| --- | --- | --- | --- | --- | --- | --- | --- | --- | --- | --- | --- | --- | --- | --- | --- | --- | --- | --- |
| C[C@@H](OP(=O)(O)O)[C@H](N)C(=O)O [P-Thr, phosphothreonine, reference compound] | did not result in any radioprotection | – | – | – | – | – | – | – | – | – | – | – | – | – | – | – | – | – |
| N[C@@H](Cc1ccc(OP(=O)(O)O)cc1)C(=O)O [P-Tyr, O-phospho-L-tyrosine (L-3-[4-hydroxy-phenyl]alanine-4′-phosphate)] | significant radioprotection | does not have any effect on the clonogenic survival | no effect was seen on clonogenic survival | 10 µM | clear increase in clonogenic survival | no increase in clonogenic survival was observed | significant increase in the toxicity of the radiation | significant increase in clonogenic survival | significant increase in clonogenic survival | significant reduction in clonogenic survival | significant reduction in clonogenic survival | 37% | no effect on the clonogenic survival | 38.7% | did not lead to any increase in clonogenic survival | 1 to 100 µM | inhibits the growth | inhibit cell growth |
